# Test results taken from patent US20100322861A1, “ENGINEERED CELLS, IMAGING REPORT GENE/PROBE SYSTEMS, AND METHODS OF IMAGING” (priority 2007, published 2010).
# Assays:
# HSV1-tk expressing CTLs = assay: In vitro assays of Ganciclovir induced cell death of HSV1-tk expressing CTLs; assay type: cell-based, human; settings: previous in vitro assays
# [1] = in vivo, iv
# Text: Two coronal slices are shown to illustrate activity within the liver, gall-bladder, intestines, kidneys and bladder, which are organs involved with [^18F]FHBG's clearance from the body.
# [2] = system: cytolytic T cells expressing IL13 zetakine and HSV1-tk genes; assay: [18F]FHBG PET imaging of infused HSV1-tk expressing CTLs in a glioma patient; assay type: in vivo, human
# Text: The CTLs were imaged with the PET reporter probe 9-[4-[^18F]Fluoro-3-(hydroxymethyl)butyl]guanine ([^18F]FHBG), because they constitutively express the PET reporter gene (PRG) HSV1-tk. (4) [^18F]FHBG is approved by the FDA as an investigational new drug (IND #61,880) for PET imaging at UCLA and Stanford University nuclear medicine clinics. UCLA's medical internal review board (M-IRB) has approved [^18F]FHBG PET imaging in normal volunteers, glioma patients and glioma patients who are enrolled in adoptive cellular gene therapy, when the infused cells express the PRG HSV1-tk. Stanford University's M-IRB has approved [^18F]FHBG PET imaging in glioma patients. COHNMC's M-IRB has approved referral of the patient's enrolled in the CTL therapy study for [^18F]FHBG PET imaging at UCLA.
# 254.62 MBq (6.88 mCi) [^18F]FHBG was injected through the other iv line (FDA limit 7 mCi). At approximately two-hours and fifteen minutes after [^18F]FHBG injection, the whole-body PET emission scan started from the patient's head to bottom, using an ECAT EXACT HR+PET scanner (CTI/Siemens, Inc., Knoxville, Tenn.). The whole-body scan consisted of 7 bed positions (7-minutes each). Three minute transmission scans followed each 7 minute emission scans. A two bed position head scan immediately followed completion of the whole-body scan. […] In addition, enhanced [^18F]FHBG accumulation was observed near the patient's corpus callosum. This indicates trafficking of infused CTLs to the remote corpus callosum tumor. The level of [^18F]FHBG accumulation is greater than what has been observed in control GBM patients who had tumor resections or intact tumors. Table 1 (FIG. 6) includes quantitative data of tumor to background ratios, comparing [^18F]FHBG accumulation levels of the CTL infused patient described in this example and control patients. Relative to similar controls, [^18F]FHBG accumulation is 2.6× higher in the patient's tumor resection site and 2.8× higher in the remote corpus callosum tumor site. […] Finally, a stereotactic biopsy of the left sided corpus callosum within a week of the [^18F]FHBG PET scan confirmed the presence of malignant disease infiltrated with CD8+ T cells.
# HSV1-TK = assay: Cell culture uptake assay of [3H]Penciclovir into patient CTLs versus control Jurkat cells; assay type: cell-based, Herpes Simplex Virus 1; settings: about 1 μCi/ml, control Jurkat cells not expressing HSV1-tk
# Protocol: FIG. 5 is a bar graph that illustrates the uptake of [^3H]Penciclovir into the genetically engineered CTL clone that was infused into the patient and control Jurkat cells. The autologous patient CTLs were genetically engineered to constitutively express HSV1-tk. The control cells expressed Firefly luciferase instead of HSV1-tk. […] The symbol “*” indicates significant difference between uptake of [^3H]PCV into patient CTLs vs control cells at 4 hours (P<0.001).
# The patient of the present example received a total of approximately 1×10^9 CTLs within a five-week period of direct infusions (one week break between weeks 2 and 4). It is both possible that these cells proliferate or some die once injected into the patient. The number of cells present within the tumor resection site and the intact tumor near the corpus callosum could not be specifically quantified. That would require a pharmacokinetic model ((2004) J Nucl Med 45, 1560-1570, which is incorporated herein by reference) for [^18F]FHBG at brain tumor sites and knowing HSV1-tk expression levels per CTL at imaging time. […] This low level of activity explains why [^18F]FHBG accumulation in CTL infusion sites and intact tumor is only 2-3× higher than background. In fact during uptake assay cultured cells were exposed to a relatively constant concentration of about 1 μCi/ml; whereas assuming homogeneous distribution of [^18F]FHBG in 6 liters of blood, the maximum concentration CTLs would have been exposed to within the first 1-2 minutes after injection would have been about 1 μCi/ml, but then there is a rapid decline in blood concentration of [^18F]FHBG within the first 20-40 minutes following it's injection. Despite that, [^18F]FHBG's ability to detect the CTLs may be due to the low background within the surrounding brain tissue and the presence of a large number of CTLs.
compound,measurement,setting,value
Nc1nc(O)c2ncn(COC(CO)CO)c2n1 [Ganciclovir],Ganciclovir induced cell death of CTLs,HSV1-tk expressing CTLs,susceptibility to Ganciclovir induced cell death
"Nc1nc2c(ncn2CCC(CO)C[18F])c(=O)[nH]1 (stereo not drawn) [[^18F]FHBG, 9-[4-[^18F]fluoro-3-(hydroxymethyl)butyl]guanine]",clearance from tissues not involved in its clearance,[1]; human,clears very rapidly
same,time of rapid decline in blood concentration following injection,[1],20 to 40 min
same,tumor 2/meninges [18F]FHBG activity ratio,"[2]; CTL infused patient, non-resected tumor near corpus callosum, images approximately two hours after injection",1.57
same,tumor 1/meninges [18F]FHBG activity ratio,"[2]; CTL infused patient, surgically resected tumor site, images approximately two hours after injection",1.75
same,[18F]FHBG accumulation versus background,[2]; CTL infusion sites and intact tumor,2-3 ×
same,average intact tumor site to meninges [18F]FHBG activity ratio,[2]; control patients (no CTLs),0.44
same,average resected tumor site/meninges [18F]FHBG activity ratio,[2]; control patients (no CTLs),0.86
same,[18F]FHBG accumulation relative to similar controls,[2]; patient's tumor resection site,2.6 ×
same,[18F]FHBG accumulation relative to similar controls,[2]; remote corpus callosum tumor site,2.8 ×
same,[18F]FHBG accumulation in the CTL infused patient versus control patients,"[2]; resection site and intact tumor, quantitative analysis",greater than two times higher
[^3H]Penciclovir,[3H]PCV uptake into CTL clone relative to control cells,HSV1-TK; 1 h,2.7 ×
same,[3H]PCV uptake into CTL clone relative to control cells,"HSV1-TK; 1 h, listed as [^3H]PCV",approximately 3 ×
same,[3H]PCV uptake into CTL clone relative to control cells,HSV1-TK; 4 h,9.3 ×
same,[3H]PCV uptake into CTL clone relative to control cells,"HSV1-TK; 4 h, listed as [^3H]PCV",~9 ×
